This is an account of results in paper PMC4459817, “Vasculotide reduces endothelial permeability and tumor cell extravasation in the absence of binding to or agonistic activation of Tie2” (EMBO Molecular Medicine, 2015).

“Also recorded” adds a separate entry of the source.

This assay deals with LM2-4luc lung metastases in SCID mice. The assay is described as follows: experimental LM2-4luc lung metastasis model (IV). Type of assay: in vivo, human LM2-4luc cells in CB-17 SCID mice. The note with it: for lung metastases by in vivo bioluminescent imaging: 24DPI, SU 60 mg/kg/day pretreatment, one-way ANOVA, Fig2B–D. The text has this: (C and G) Photographs of typical metastases in the lungs and caudal lymphatics, respectively. […] Geometric means ± 95%CI are depicted in (D and H); P values were derived by one-way ANOVA (D) and Kruskal–Wallis test (H). […] TEXT PRINTED IN THE PICTURE: (A) Vasculotide (VT): Hazard ratio = 0.13 (95% CI, 0.03 to 0.63) | (A) SU+VT: Hazard ratio = 0.19 (95% CI, 0.04 to 0.81) DOUBTS OF THE COPYIST ABOUT THIS PICTURE: Vasculotide (VT), Hazard ratio: small print; 0.13 could be 0.15 or 0.18, and the CI limits 0.03 and 0.63 are uncertain in the digits 3/5/6/8 / SU+VT, Hazard ratio: small print; 0.19 could be 0.18 or 0.16, and the CI limits 0.04 and 0.81 are uncertain in the digits / Panel A: each hazard ratio is printed under a pair of legend entries (Vehicle / Vasculotide (VT), and Sunitinib (SU) / SU+VT). Assigning it to the VT-treated arm of each pair is my assumption.
In vivo experiments were performed in strict accordance with protocols approved by the Sunnybrook Research Institute Animal Care Committee, accredited by the Canadian Council of Animal Care. All surgical, imaging, and euthanasia procedures were performed under inhaled isoflurane anesthesia. Experimental metastasis models involved injections of 10^6 tumor cells, suspended in 200 μl serum-free DMEM, into the mouse tail vein. LM2-4^luc implantations were performed on 6 to 8-week-old female CB-17 SCID mice (Charles River Canada). HT29^luc implantations were performed on 19- to 20-week-old male and 11- to 12-week-old female YFP-SCID mice (bred in-house). SN12^luc implantations were performed on 9-week-old male YFP-SCID mice. Spontaneous metastasis models involved orthotopic implantations of 2 × 10^6 LM2-4^luc cells/50 μl serum-free DMEM in the right inguinal mammary fat pads of 6-week-old female CB-17 SCID mice.
Sunitinib malate (SU), from Pfizer or LC Laboratories, and its vehicle were formulated as described before (Ebos et al, [2009]). SU was administered by oral gavage (PO), once daily, at a dose of 60 mg/kg mouse weight. Vasculotide (VT): VT synthesized at the Sunnybrook Research Institute (Toronto, ON, Canada) was used in experiments described in Fig2(A–D) and Supplementary Fig S5(A and B). VT synthesized by American Peptide (Sunnyvale, CA, USA) was used in experiments described in Fig5. VT synthesized by Bachem UK Ltd was used in experiments described in Figs1, 2(E–H), 3, 4, 6–9, Supplementary Figs S2, and S5(C and D). Lyophilized product was reconstituted in PBS to 500 μg/500 μl stock aliquots and stored at −80°C. As needed, stock aliquots were diluted with PBS to a 250 ng/50 μl working concentration and stored in 0.4–1 ml aliquots at −80°C. VT (at a standard dose of 250 ng/mouse) or its vehicle (PBS) was administered to mice by intraperitoneal (IP) injections every other day.
5. Bioluminescence imaging (BI) of tumor burden
For in vivo BI: Mice were injected intraperitoneally with 150mg/kg luciferin (Promega) 10 minutes prior to and anesthetized with isofluorane just before luminescent pseudocolor imaging (uniform settings: CCD camera locked at -105 °C, exposure=60s, f/1, subject size=1.5cm, bin=8, FOV=23.2cm, full image correction) using the IVIS 200 Imaging System (Caliper/PerkinElmer). Using the Living Image software (v2.50.1, Xenogen), weekly images were analyzed under uniform color range on grayscale photographic overlay. Total fluxes (photons/sec) were quantified within consistent regions of interest and statistically compared ideally at a timepoint before any deaths have occurred. […]

For the molecule `CCN(CC)CCNC(=O)c1c(C)[nH]c(/C=C2\C(=O)Nc3ccc(F)cc32)c1C` [sunitinib, reference compound], for the setting “VT 250 ng/2d, listed as SU”, the “lung metastases by in vivo bioluminescent imaging” value is recorded as “promoted lung metastases; also recorded: preferentially accelerated experimental lung metastasis, but not lymphatic metastasis”.

Consider “CHHHRHSF [Vasculotide, 4-armed maleimide-functionalized polyethylene glycol (PEG) backbone to link together four cysteine-capped T7 peptides, that is, CHHHRHSF]”, for which the “lung metastases by in vivo bioluminescent imaging” value (VT 250 ng/2d, listed as VT) is “trend of reduced lung metastases; also recorded: effectively suppressing SU-induced promotion of lung metastases, as seen by IVBI (P < 0.05”. Also, for the setting “Supplementary Fig S5”, the “confirmatory repeats: VT trends on lung metastases and survival” value is “The same trends were reproduced”. The survival result (VT 250 ng/2d, with or without SU 60 mg/kg/day pretreatment, n = 5–6, Fig2A, listed as VT) is reported as “significant survival benefit (P = 0.01); also recorded: prolonged median survival”. Where the note is “VT 250 ng/2d IP monotherapy, n = 5–6, Fig2A”, the “extension of median survival” value is around 20%.
